{"source": "patent US20150031655A1", "about": "“COMBINATION OF LIVER X RECEPTOR MODULATOR AND ESTROGEN RECEPTOR MODULATOR FOR THE TREATMENT OF AGE-RELATED DISEASES” (UNIVERSITY OF NORTH DAKOTA, priority 2011, published 2015)", "key": {"TH mRNA": {"test_system": "TH mRNA", "experiment": "Real time RT-PCR of TH mRNA in SH-SY5Y cells", "assay_type": "cell-based, human", "details": "24 h, treatment alone vs control", "experimental": "(§1) Human neuroblastoma SH-SY5Y cells were grown in DMEM/F12 medium containing 10% fetal bovine serum (FBS) and 1% antibiotic/antimycotic mix. Cells were maintained at 37° C. in a saturated humidity atmosphere containing 95% air and 5% CO2.\nTotal RNA was isolated and extracted from treated cells using the 5 prime “PerfectPure RNA tissue kit” (5 Prime, Inc., Gaithersburg, Md.). RNA estimation was performed using “Quant-iT RNA Assay Kit” using a Qubit fluorometer according to the manufacturer's protocol (Invitrogen, Carlsbad, Calif.). cDNA was synthesized by reverse transcribing 1 μg of extracted RNA using an “iScript cDNA synthesis kit” (BioRad, Hercules, Calif.). The oligomeric primers (Sigma, St Louis, Mo.) used to amplify the TH mRNA and α-synuclein mRNA are enumerated in Table 1. The cDNA amplification was performed using an iQ SYBR Green Supermix kit following the manufacturer's instructions (BioRad, Hercules, Calif.). The amplification was performed using an iCycler iQ Multicolor Real Time PCR Detection System (BioRad, Hercules, Calif.). The expression of specific TH and α-synuclein transcripts amplified were normalized to the expression of glyceraldehyde-3-phosphate dehydrogenase (GAPDH)."}, "ERα": {"molecular_target": "T1, ERα (Homo sapiens, UniProt P03372)", "T1 construct": "endogenous in cells; host or cells: SH-SY5Y human neuroblastoma cells", "T1 sequence (P03372 1-595)": "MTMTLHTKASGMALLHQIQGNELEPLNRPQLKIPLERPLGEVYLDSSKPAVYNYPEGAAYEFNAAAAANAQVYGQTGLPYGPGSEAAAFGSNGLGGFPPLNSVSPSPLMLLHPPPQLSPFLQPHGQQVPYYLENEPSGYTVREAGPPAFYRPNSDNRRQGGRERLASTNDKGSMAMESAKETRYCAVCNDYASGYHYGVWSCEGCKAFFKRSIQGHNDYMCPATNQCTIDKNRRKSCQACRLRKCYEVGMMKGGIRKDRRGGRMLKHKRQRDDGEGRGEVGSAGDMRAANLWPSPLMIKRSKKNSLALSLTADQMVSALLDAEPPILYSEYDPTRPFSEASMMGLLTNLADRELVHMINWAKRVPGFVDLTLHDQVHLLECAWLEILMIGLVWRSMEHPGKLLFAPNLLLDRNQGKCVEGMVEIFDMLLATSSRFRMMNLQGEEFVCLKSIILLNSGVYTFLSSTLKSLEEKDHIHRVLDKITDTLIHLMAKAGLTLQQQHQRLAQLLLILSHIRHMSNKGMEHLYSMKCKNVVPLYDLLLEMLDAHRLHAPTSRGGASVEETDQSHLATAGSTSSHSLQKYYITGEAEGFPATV", "experiment": "Western blot of ERα levels in the nucleus (nuclear translocation), SH-SY5Y cells", "assay_type": "cell-based", "details": "24 h, treatment alone vs control", "experimental": "as §1"}, "ERβ": {"molecular_target": "T2, ERβ (Homo sapiens, UniProt Q92731)", "T2 construct": "endogenous in cells; host or cells: SH-SY5Y human neuroblastoma cells", "T2 sequence (Q92731 whole entry)": "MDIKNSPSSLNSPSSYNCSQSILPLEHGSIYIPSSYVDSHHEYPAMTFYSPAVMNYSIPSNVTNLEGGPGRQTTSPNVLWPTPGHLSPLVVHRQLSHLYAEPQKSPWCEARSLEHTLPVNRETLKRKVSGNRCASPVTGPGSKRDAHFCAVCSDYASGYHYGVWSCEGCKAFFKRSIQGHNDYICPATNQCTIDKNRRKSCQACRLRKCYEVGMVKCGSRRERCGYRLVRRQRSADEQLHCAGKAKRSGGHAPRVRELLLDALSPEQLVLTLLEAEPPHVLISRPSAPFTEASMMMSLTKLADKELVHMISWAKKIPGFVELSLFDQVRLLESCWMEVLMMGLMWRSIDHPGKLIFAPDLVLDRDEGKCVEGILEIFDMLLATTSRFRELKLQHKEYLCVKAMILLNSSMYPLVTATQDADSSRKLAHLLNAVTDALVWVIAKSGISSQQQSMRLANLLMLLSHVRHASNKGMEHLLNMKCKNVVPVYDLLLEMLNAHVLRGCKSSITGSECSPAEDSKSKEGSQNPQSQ", "experiment": "Western blot of ERβ levels in the nucleus (nuclear translocation), SH-SY5Y cells", "assay_type": "cell-based", "details": "24 h, treatment alone vs control", "experimental": "as §1\nTreated SH-SY5Y cells were washed with PBS and trypsinized to collect the cells and centrifuged at 5000 g. The pellet was washed again with PBS and homogenized in NE-PER tissue protein extraction reagent (Thermo Scientific, Rockford, Ill.) supplemented with protease and phosphatase inhibitors. Protein concentrations from the cytosolic and nuclear homogenates were determined with BCA protein assay.\nProteins (10 μg) were separated on SDS-PAGE gels, transferred to a polyvinylidene difluoride membrane (BioRad, Hercules, Calif.), and incubated with the following monoclonal antibodies: anti-TH mouse antibody (1:1000; Sigma Aldrich, Saint Louis, Mo.), anti-α-synuclein mouse antibody (1:500; Chemicon, Temecula, Calif.), anti-ERα rabbit antibody (1:500; Abcam, Cambridge, Mass.), anti-ERβ rabbit antibody (1:200; Upstate, Lake Placid, N.Y.), anti-LXRα rabbit antibody (1:500; Abcam, Cambridge, Mass.), anti-LXRβ mouse antibody (1:500; Abcam, Cambridge, Mass.).\nβ-actin and Lamin A were used as a gel loading control for cytosolic homogenates and nuclear homogenates respectively. The blots were developed with enhanced chemiluminescence (Immmun-star HRP chemiluminescent kit, Bio-Rad, Hercules, Calif.). Bands were visualized on a polyvinylidene difluoride membrane and analyzed by LabWorks 4.5 software on a UVP Bioimaging System (Upland, Calif.). Quantification of results was performed by densitometry and the results analyzed as total integrated densitometric values (arbitrary units)."}, "TH promoter": {"test_system": "TH promoter", "experiment": "Dual-luciferase TH promoter assay", "assay_type": "cell-based, human", "details": "SH-SY5Y transfected with TH promoter-luciferase, 24 h", "experimental": "Constructs encoding ERE and TH promoter conjugated to the firefly luciferase gene were used in the study. Human neuroblastoma SH-SY5Y cells were plated in 96-well plates at a density of 2×10^4 cells/well. The cells were transfected when 80% confluent with 0.25 μg of either ERE-firefly Luciferase reporter construct, LXRE-firefly Luciferase reporter construct, or TH promotor-firefly Luciferase promoter construct. Respective non-inducible reporter constructs containing constitutively expressing Renilla luciferase were used as negative internal controls. Constitutively expressing GFP constructs were used as positive control to determine transfection efficiency. Cells were incubated for 24 hours with Opti-MEM serum free medium (Invitrogen, Carlsbad, Calif.) containing the reporter constructs dissolved in transfection reagent. After 24 hours the medium was changed and the cells were incubated in normal DMEM/F12 medium containing 10% FBS and cells were treated with the different treatment regimens. The cells were treated in triplicate and harvested 24 hours later and subjected to dual-luciferases assay. The dual-luciferase assay was performed using a “Dual-Luciferase Reporter Assay System” from Promega (Madison, Wis.). The luminescence recorded is expressed as Relative Luminescence Units (RLU) and normalized to per mg protein. Unit value was assigned to control and the magnitude of differences among the samples is expressed relative to the unit value of control cells."}, "ARPE-19 cells": {"test_system": "ARPE-19 cells", "assay_type": "cell-based", "experimental": "ARPE-19 cells were treated with 0, 10 or 25 μM 27-OHC for 24 hours."}}, "data": [{"molecule": "C[C@@H](CO)CCC[C@@H](C)[C@H]1CC[C@H]2[C@@H]3CC=C4C[C@@H](O)CC[C@]4(C)[C@H]3CC[C@]12C", "note": "[27-OHC, 27-hydroxycholesterol]", "values": [{"measurement": "TH mRNA", "setting": "TH mRNA", "result": "reduces"}, {"measurement": "nuclear translocation / nuclear levels of ERα", "setting": "ERα", "result": "decrease"}, {"measurement": "nuclear translocation / nuclear levels of ERβ", "setting": "ERβ", "result": "decrease"}, {"measurement": "reduction of TH promoter activity", "setting": "TH promoter", "result": "~4", "unit": "fold"}, {"measurement": "toxicity to RPE cells", "setting": "ARPE-19 cells", "result": "toxic"}, {"measurement": "Aβ peptide production", "setting": "ARPE-19 cells; ARPE-19, 0, 10 or 25 μM, 24 hours", "result": "dose-dependently increased"}, {"measurement": "Ca^2+ homeostasis", "setting": "ARPE-19 cells; ARPE-19, 10 or 25 μM, 24 hours", "result": "dyshomeostasis"}, {"measurement": "ROS generation", "setting": "ARPE-19 cells; ARPE-19, 10 or 25 μM, 24 hours", "result": "ROS generation"}, {"measurement": "glutathione", "setting": "ARPE-19 cells; ARPE-19, 10 or 25 μM, 24 hours", "result": "glutathione depletion"}, {"measurement": "levels of ER stress specific markers caspase 12 and gadd153", "setting": "ARPE-19 cells; ARPE-19, 10 or 25 μM, 24 hours", "result": "increased"}, {"measurement": "levels of NFκB and heme-oxygenase 1 (HO-1)", "setting": "ARPE-19 cells; ARPE-19, 10 or 25 μM, 24 hours", "result": "increased"}, {"measurement": "mitochondrial membrane potential", "setting": "ARPE-19 cells; ARPE-19, 10 or 25 μM, 24 hours", "result": "reduced"}]}]}
